Drawing on PubChem BioAssay AID179 (DTP/NCI, 2004), this text covers outcome, EC50 and IC50 for 72 compounds.

Molecules are shown by their SMILES. Active and inactive are the calls of the source.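 The calls were made as follows: active = compounds giving half or more protection of infected cells from virus-caused growth loss, again on retest; inactive = the rest.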

For this test, the system named is CEM cells HIV-1 protection, formazan growth assay. Nature of the test: NCI AIDS Antiviral Assay. As to conditions: for IC50: measured here: growth of uninfected CEM cells. Summed up:
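Five concentrations of each compound were applied to infected and uninfected human CEM cells. Protection from HIV-1 was judged from growth measured with a soluble formazan assay.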

In the case of `CC(=O)OC1C2CCC1C1C2C2(Cl)C(Cl)=C(Cl)C1(Cl)C2(Cl)Cl` (configuration not stated), the result was inactive.

Regarding `Oc1c(C(O)c2ccccn2)ccc2ccccc12` (configuration not stated), the EC50 was > 200 µM and the IC50 came to 36.3 µM.

Consider `CC1(C)C2CCC13CS(=O)(=O)N=C3C2` (configuration not stated), for which the result was inactive.

In the case of `CC12CC(c3ccccc3N1)C1CC2(C)Nc2ccccc21`, the EC50 is > 64.6 µM and the IC50 was > 64.6 µM.

As for `O=c1n(CCCN2CCOCC2)nc2n1-c1ccc3ccccc3c1SC2`, the EC50 was > 200 µM and the half-inhibitory concentration (IC50) was 33.9 µM.

Take `O=C(O)C12C(=O)NC(=O)C1(C(=O)O)C21CCCCC1` (configuration not stated): the EC50 is > 933 µM and the IC50 is > 933 µM.

Take `O=C(O)C[C@H](Cl)[C@H](NC(=O)OCc1ccccc1)C(=O)O`: the outcome was inactive.

As to `Cc1ccc(S(=O)(=O)Nc2cccc(C)c2C)cc1`, the result was inactive.

For the compound `COC(=O)/C(C#N)=C(/NCCN)Nc1ccccc1`, the EC50 was > 200 µM and the 50% inhibitory concentration (IC50) is > 200 µM.

Turning to `Cc1ccccc1NC(=O)/C(C#N)=N\Nc1nc[nH]c1C(N)=O`, the EC50 was > 200 µM and the IC50 was 0.257 µM.

Take `Cc1cc(=O)[nH]c(NNC(C#N)c2c(O)ccc3ccccc23)n1` (configuration not stated): the EC50 was > 16.2 µM and the IC50 worked out at 1.07 µM.

Consider `COc1ccc(NC(=O)CC/C(CC(=O)c2ccccc2Cl)=N\Nc2nnc(C)n2N)cc1`, for which the EC50 is > 537 µM and the IC50 worked out at 191 µM.

As for `Cc1nc2c(C)ccc([N+](=O)[O-])c2c(NCCCN(C)C)c1C`, the EC50 is > 200 µM and the IC50 came out at 69.2 µM.

As for `O=C1NC2C(O)CCCCC2C12CCCCC2` (configuration not stated), the outcome was inactive.

In the case of `CC(C)C1=CC23CCC4C(C)(C(=O)O)CCCC4(C)C2CC1C1C(=O)N(c2ccccc2N2C(=O)C4C5CC6C7(C)CCCC(C)(C(=O)O)C7CCC6(C=C5C(C)C)C4C2=O)C(=O)C13` (configuration not stated), the EC50 is > 141 µM and the half-inhibitory concentration (IC50) worked out at 8.13 µM.

With `CNC(=O)CNC(=O)CCC(=O)OC`, the EC50 is > 200 µM and the half-inhibitory concentration (IC50) was > 200 µM.

Turning to `CSc1nc(C)c(CCOC(C)=O)c(Cl)n1`, the EC50 is > 200 µM and the IC50 was > 200 µM.

As for `COC(=O)[C@@H]1C=C[C@H](OC2OC(COC(C)=O)C(OC(C)=O)C(OC(C)=O)C2OC(C)=O)n2c(=O)c3ccccc3c(=O)n21` (some centres not stated), the EC50 was > 200 µM and the half-maximal inhibitory concentration (IC50) turned out to be 10.7 µM.

Consider `C/C=C1\C=C(OC)CN(CCc2c[nH]c3ccccc23)C1`, for which the EC50 was > 158 µM and the half-inhibitory concentration (IC50) amounted to 50.1 µM.

Turning to `CON(C)c1nc2ccccc2o1`, the EC50 was > 200 µM and the half-inhibitory concentration (IC50) stood at 107 µM.

Turning to `Cc1ccc(N=N/C(=N/NC(=O)c2cc(Cl)ccc2C(=O)c2ccccc2)c2ccc(N(CCC#N)CCC#N)cc2C)cc1`, the EC50 is > 200 µM and the half-maximal inhibitory concentration (IC50) turned out to be 11.7 µM.

With `Cc1nc2ccccc2c(=O)n1NC(=O)c1ccc(N)cc1`, the EC50 is > 200 µM and the half-maximal inhibitory concentration (IC50) is > 200 µM.

Turning to `S=C(NCCCCCCNC(=S)Nc1c2ccccc2nc2ccccc12)Nc1c2ccccc2nc2ccccc12`, the outcome was inactive.

Turning to `O=C(CSc1nnc(Cc2ccccc2)o1)Nc1ccc(Cl)cc1`, the EC50 was > 100 µM and the 50% inhibitory concentration (IC50) was 72.4 µM.

Take `CC(=O)NC1NCCNC1=O` (configuration not stated): the EC50 was > 200 µM and the IC50 was > 200 µM.

Regarding `O=CC(O)C(O)C(O)C(O)COC(=O)NCCCCC(=O)C(F)(F)C(F)(F)C(F)(F)C(F)(F)C(F)(F)C(F)(F)C(F)(F)F` (configuration not stated), the EC50 was > 200 µM and the IC50 was determined as 24 µM.

For the compound `C[N+]1(C)CCCC(C#N)(c2ccccc2)CC1` (configuration not stated), the EC50 was > 813 µM.

With `CC1(c2nc3cc(Cl)c(Cl)cc3[nH]2)CCC(C(=O)O)C(C)(C)O1` (configuration not stated), the EC50 was > 200 µM and the 50% inhibitory concentration (IC50) is > 200 µM.

For `c1ccc2c(c1)CCc1[nH]c3c(c1-2)-c1ccccc1CC3`, the EC50 was > 200 µM and the half-maximal inhibitory concentration (IC50) stood at 30.9 µM.

As to `COC1(CC[C@H](C)COC2OC(CO)C(O)C(O)C2O)O[C@H]2C[C@H]3[C@@H]4CC=C5C[C@@H](OC6OC(CO)C(OC7OC(C)C(O)C(O)C7O)C(O)C6OC6OC(C)C(O)C(O)C6O)CC[C@]5(C)[C@H]4CC[C@]3(C)[C@H]2[C@@H]1C` (some centres not stated), the EC50 is > 200 µM and the half-inhibitory concentration (IC50) stood at 1.58 µM.

Consider `O=C1OC(=O)C(=C\c2ccc3c(c2)OCO3)/C1=C/c1ccc2c(c1)OCO2`, for which the outcome was inactive.

Consider `O=S1(=O)OCCOS(=O)(=O)C1C1c2ccccc2-c2ccccc21`, for which the EC50 was > 200 µM and the IC50 is 30.9 µM.

Take `CC(=O)O[C@H]1CC[C@H]2[C@@H]3[C@H](C)CC4=CC(=O)CCC4[C@H]3CC[C@]12C` (some centres not stated): the EC50 is > 200 µM and the IC50 is 69.2 µM.

As to `COc1cccc(OC)c1NC(=O)C(=O)Nn1c(NNC(=O)c2ccncc2)nc2ccccc2c1=O`, the EC50 is > 501 µM and the IC50 was > 501 µM.

As for `O=C1CC(=O)NC(=NN2C(=O)CSC2c2ccc(Cl)cc2)N1` (configuration not stated), the EC50 was > 200 µM and the half-maximal inhibitory concentration (IC50) is 105 µM.

As to `COC(=O)C(Cc1cn(C(C)=O)c2ccccc12)P(=O)(OC)OC` (configuration not stated), the EC50 is > 200 µM and the half-inhibitory concentration (IC50) was > 200 µM.

Consider `CN(C)C(=C1C(Br)=C(Br)C(Br)=C1Br)N(C)C`, for which the outcome was inactive.

Consider `CCOC(=O)Cc1nc(Nc2ccc(F)c(Cl)c2)c2c3c(sc2n1)CCCC3`, for which the EC50 is > 12.3 µM and the IC50 is > 12.3 µM.

For the compound `ClCc1ccc2ccc3ccc(CCl)nc3c2n1`, the EC50 is > 200 µM and the IC50 worked out at 1.51 µM.

Take `Cc1ccccc1NC(=O)C(=O)c1c(O)c2ccc(O)cc2oc1=O`: the EC50 was > 741 µM and the IC50 worked out at 331 µM.

For the compound `CN(NC(=O)Nc1cccc2ccccc12)c1ccccc1`, the EC50 was > 24.5 µM and the IC50 was > 24.5 µM.

As to `CC(=O)OCC1OC(n2c3c(cc(C#N)c2=S)CCCCCC3)C(OC(C)=O)C(OC(C)=O)C1OC(C)=O` (configuration not stated), the EC50 is > 200 µM and the half-maximal inhibitory concentration (IC50) amounted to 52.5 µM.

Consider `COc1ccc2c(=O)c(-c3ccc(OC)c(OC)c3OCc3ccccc3)coc2c1`, for which the EC50 was > 200 µM and the half-maximal inhibitory concentration (IC50) stood at 69.2 µM.

As for `COC1/C=C/OC2(C)Oc3c(C)c(O)c4c(O)c(c(/C=N/N5C(C)CN(Cc6cccc(C#N)c6)CC5C)c(O)c4c3C2=O)NC(=O)/C(C)=C\C=C\C(C)C(O)C(C)C(O)C(C)C(OC(C)=O)C1C` (configuration not stated), the EC50 is > 200 µM and the IC50 worked out at 6.46 µM.

With `CCOC(=O)/C(=C\c1ccc(N(C)C)cc1)[Se]c1ccccc1`, the EC50 was > 69.2 µM and the concentration for half-maximal inhibition (IC50) is > 69.2 µM.

As to `O=C(Nc1nc(Cl)nc(Cl)n1)N1CCOCC1`, the EC50 is > 200 µM and the concentration for half-maximal inhibition (IC50) is > 200 µM.

With `O=C(/N=N/C(=O)N1CCOCC1)N1CCOCC1`, the EC50 is 75.9 µM and the concentration for half-maximal inhibition (IC50) amounted to 87.1 µM.

Take `CC(C)(C)Nc1noc(=O)n1C(C)(C)C`: the EC50 is > 100 µM and the IC50 is > 100 µM.

Turning to `CC1(C)SCc2nc3ncccc3n21`, the EC50 is > 1230 µM and the IC50 was 617 µM.

Consider `O=C1/C(=C/c2cccc([N+](=O)[O-])c2)Sc2scc(-c3ccc([N+](=O)[O-])cc3)[n+]21`, for which the EC50 is > 200 µM and the IC50 stood at 38 µM.

Consider `O=C(O)c1cccc2cccc(C(=O)O)c12.[Hg]`, for which the result was inactive.

Turning to `O=C1C(/C=C/c2ccc(Cl)cc2)=NNC2N1N=C1NC(=O)C3(NN12)c1ccccc1-c1ccccc13` (configuration not stated), the EC50 is > 200 µM and the IC50 worked out at 132 µM.

For `Cc1cn(C2CCC(COP(=O)(OCC(=O)c3ccccc3)OCC(=O)c3ccccc3)O2)c(=O)[nH]c1=O` (configuration not stated), the EC50 is 19.5 µM and the 50% inhibitory concentration (IC50) was > 200 µM.

For `O=c1oc2ccccc2[n+]([O-])c1-c1ccccc1`, the EC50 was > 1050 µM and the concentration for half-maximal inhibition (IC50) is > 1050 µM.

As to `O=c1[nH]nc(-c2cccc([N+](=O)[O-])c2)[nH]1`, the EC50 was > 200 µM and the IC50 was 148 µM.

As to `Cc1ccc(/C=C2\CCCC(C(NO)c3ccc(C)cc3)C2=NO)cc1` (configuration not stated), the EC50 was > 5.75 µM and the concentration for half-maximal inhibition (IC50) was > 5.75 µM.

`CCCCCCCCCc1nn2c(Cc3ccccc3)nnc2s1`: the EC50 is > 200 µM and the 50% inhibitory concentration (IC50) amounted to 36.3 µM.

`COc1cc(OC)cc(C2=NNc3n[nH]c(=S)n3N2)c1`: the EC50 is > 123 µM and the IC50 is > 123 µM.

Take `CC(=O)Nc1ccc(-c2nnc(SCC(=O)Nc3cccc(Cl)c3)o2)cc1`: the EC50 was > 46.8 µM and the IC50 was found to be 7.59 µM.

Turning to `CCC1CC2C(=O)N(c3ccccc3)C(=O)C2c2[nH]c3ccccc3c21` (configuration not stated), the outcome was inactive.

Turning to `O=C(c1ccccc1)c1ccc(OCCOc2ccc(Nc3ccccc3)cc2)cc1`, the EC50 was > 6.61 µM and the IC50 is > 6.61 µM.

As to `Cc1ccc2oc(=O)c(C#N)c(C)c2c1`, the EC50 is > 25.1 µM and the IC50 is > 25.1 µM.

On to `Nc1cc(N)c(N)cc1N`, for which the EC50 is > 200 µM and the half-inhibitory concentration (IC50) was determined as 38 µM.

Consider `CCOC(=N)CCCSSc1ccc(N=[N+]=[N-])cc1`, for which the EC50 is > 200 µM and the IC50 worked out at 25.7 µM.

As to `O=C1CC2(CCNCC2)C(=O)N1N1CCOCC1`, the EC50 was > 200 µM and the concentration for half-maximal inhibition (IC50) was > 200 µM.

In the case of `CC(C)CC(NC(=O)C(COc1ccc([N+](=O)[O-])cc1)Cc1ccccc1)C(=O)Nc1ccccc1` (configuration not stated), the EC50 is > 100 µM and the IC50 is 15.1 µM.

With `CC1(C)C[C@H]2[C@H](O)C(CO)=C3CC(O)C3(C)[C@H]2C1` (some centres not stated), the EC50 was > 141 µM and the IC50 came out at 66.1 µM.

Regarding `CC1(C)CCCC2C1=NOC2O` (configuration not stated), the EC50 is > 1480 µM and the IC50 was > 1480 µM.

On to `COc1cc(C2OC(N)=C(C#N)C3=C2C(C)CCC3)cc(OC)c1OC` (configuration not stated), for which the outcome was inactive.

Turning to `O=c1[nH]n(Cc2ccccc2CCl)c2ccc([N+](=O)[O-])cc12`, the EC50 is > 200 µM and the concentration for half-maximal inhibition (IC50) came out at 38 µM.

In the case of `CCCCc1ccc(C#CC#Cc2ccc(CCCC)s2)s1`, the EC50 is > 200 µM and the concentration for half-maximal inhibition (IC50) was > 200 µM.

Turning to `COC(=O)C1=C(C)C=C(N2CCOCC2)C(C(=O)OC)C1c1ccccc1` (configuration not stated), the EC50 is > 200 µM and the half-maximal inhibitory concentration (IC50) was > 200 µM.
